In patent publication US5220059A, “Lipoxygenase-inhibiting compounds derived from non-steroidal antiinflammatory carboxylic acids” (Abbott Laboratories, priority 1990, dated 1993):

What was measured:
5-lipoxygenase = biological target: T1, 5-lipoxygenase (Rattus norvegicus, UniProt P12527); experiment: In vitro inhibition of 5-lipoxygenase (20,000xg supernatant from homogenized RBL-1 cells); format: biochemical; details: read-out: IC50 (concentrations producing 50% enzyme inhibition)
T1 construct: 20,000xg supernatant from homogenized RBL-1 cells; endogenous in cells; host or cells: RBL-1 cells (20,000xg supernatant of homogenate)
T1 sequence (P12527 1-673): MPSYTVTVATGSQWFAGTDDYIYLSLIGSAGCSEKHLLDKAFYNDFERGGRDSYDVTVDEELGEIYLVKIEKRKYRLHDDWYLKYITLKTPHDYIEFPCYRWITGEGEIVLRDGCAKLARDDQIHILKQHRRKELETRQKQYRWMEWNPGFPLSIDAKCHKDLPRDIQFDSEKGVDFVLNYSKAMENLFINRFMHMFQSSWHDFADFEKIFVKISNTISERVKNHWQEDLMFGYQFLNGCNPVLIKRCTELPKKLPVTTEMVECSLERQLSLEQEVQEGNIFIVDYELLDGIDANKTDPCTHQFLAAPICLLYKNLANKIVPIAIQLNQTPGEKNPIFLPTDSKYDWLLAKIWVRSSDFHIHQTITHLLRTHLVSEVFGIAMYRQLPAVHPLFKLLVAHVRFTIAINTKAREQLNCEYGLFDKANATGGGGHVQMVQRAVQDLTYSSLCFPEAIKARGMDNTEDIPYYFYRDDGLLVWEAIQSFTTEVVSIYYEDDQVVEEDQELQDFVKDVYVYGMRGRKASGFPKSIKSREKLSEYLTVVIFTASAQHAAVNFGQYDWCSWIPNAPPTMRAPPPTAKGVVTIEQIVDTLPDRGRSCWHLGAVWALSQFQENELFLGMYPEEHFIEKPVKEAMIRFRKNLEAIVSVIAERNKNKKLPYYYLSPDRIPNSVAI
Experimental: The In vitro effect of the compounds of the present invention on 5-lipoxygenase activity was evaluated using the 20,000xg supernatant from homogenized RBL-1 cells in a manner similar to that described by Dyer and coworkers in Fed. Proc., Fed. Am. Soc. Exp. Biol. 43:[…] (1984). IC50 values (i.e., concentrations of the compounds producing 50% enzyme inhibition) were calculated by linear regression analysis of percentage inhibition versus log inhibitor concentration plots.

leukotriene biosynthesis = experiment: In vivo inhibition of leukotriene biosynthesis, rat peritoneal anaphylaxis model; details: 200 μmol/kg PO (gavage) one hour prior to antigen challenge, peritoneal fluids collected 15 minutes after challenge
Experimental: The in vivo inhibition of leukotriene biosynthesis by the compounds of the present invention was evaluated in the following manner. The effect of the compounds after oral administration was determined using a rat peritoneal anaphylaxis model in a manner similar to that described by Young and coworkers in Fed. Proc., Fed. Am. Soc. Exp. Biol. 44:1185 (1985). According to this model rats were injected intraperitoneally (IP) with rabbit antibody to bovine serum albumin (BSA) and three hours later injected IP with BSA to induce an antigen-antibody response. Rats were sacrificed 15 minutes after this challenge and the peritoneal fluids were collected and analyzed for leukotriene levels. Test compounds were administered by gavage (PO) one hour prior to the antigen challenge. Percent inhibition values were determined by comparing the treatment group to the mean of the control group.

Row | Structure (SMILES) | IC50 (5-lipoxygenase) | In vivo Inhibition of Leukotriene Biosynthesis (leukotriene biosynthesis)
1 | CC(C)Cc1ccc(C(C)N(O)C(N)=O)cc1 (stereo not drawn) [Example 1, N-hydroxy-N-[1-(4-(2'-methylpropyl)phenyl)ethyl]urea] | 640 nM | 
2 | COc1ccc2cc(C(C)N(O)C(N)=O)ccc2c1 (stereo not drawn) [Example 2, N-hydroxy-N-1-(6-methoxynaphthalen-2-yl)ethyl urea] | 430 nM | 66%
3 | CCOC(=O)N(O)C(C)c1ccc(CC(C)C)cc1 (stereo not drawn) [Example 30, N-hydroxy-N-[1-(4-(2'-methylpropyl)phenyl)ethyl] ethoxycarbamate] | < 400 nM | 
4 | COc1ccc2cc(C(C)N(O)C(C)=O)ccc2c1 (stereo not drawn) [Example 5, N-hydroxy-N-1-(6-methoxynaphthalen-2-yl)ethyl acetamide] | 700 nM | 62%
5 | CNC(=O)N(O)CCc1c(C)n(C(=O)c2ccc(Cl)cc2)c2ccc(OC)cc12 [Example 32, N-hydroxy-N-[2-(N-(4-chlorobenzoyl)-5-methoxy-2-methyl-[1H]-indol-3-yl)ethyl]-N'-methyl urea] | 200 nM | 42%
6 | CNC(=O)N(O)C(C)c1ccc(CC(C)C)cc1 (stereo not drawn) [Example 3, N'-methyl-N-hydroxy-N-1-(4-(2'-methylpropyl)phenyl)ethyl urea] | 700 nM | 39%
7 | CC(C)Cc1ccc(C(C)N(O)C(N)=S)cc1 (stereo not drawn) [Example 29, N-hydroxy-N-[1-(4-(2'-methylpropyl)phenyl)ethyl] thiourea] | < 400 nM | 
8 | CNC(=O)N(O)C(C)c1ccc2cc(OC)ccc2c1 (stereo not drawn) [Example 4, N'-methyl-N-hydroxy-N-1-(6-methoxynaphthalen-2-yl)ethyl urea] | 600 nM | 
9 | CC(C)Cc1ccc(C(C)CN(O)C(N)=O)cc1 (stereo not drawn) [Example 17, N-hydroxy-N-[2-(4-(2-methylpropyl)phenyl)propyl] urea] | 200 nM | 
10 | CCSC(=O)N(O)C(C)c1ccc(CC(C)C)cc1 (stereo not drawn) [Example 31, N-hydroxy-N-[1-(4-(2'-methylpropyl)phenyl)ethyl] thioethylcarbamate] | 200 nM | 
11 | COc1ccc2c(c1)c(CCN(O)C(N)=O)c(C)n2C(=O)c1ccc(Cl)cc1 [Example 16, N-hydroxy-N-[2-(N-(4-chlorobenzoyl)-5-methoxy-2-methyl-[1H]-indol-3-yl)ethyl] urea] | 400 nM | 
